# Patent publication US20110086759A1, “CHEMICAL COMPOUNDS” (SYNGENTA CROP PROTECTION, INC., priority 2007, published 2011)
# Tests used:
# Type in all cases: in vivo
# [1] = system: Alopecurus myosuroides (ALOMY); assay: Pre-emergence biological efficacy, glasshouse pot test; conditions: 312 h
# Outline: (§1)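 Damage rated 0–100 (100 = total kill) 13 days post-spray. Pots of standard soil were sown and sprayed after one day with test compound at 1000 or 250 g/ha in acetone/water (50:50) plus 0.5% Tween 20.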
# [2] = system: Amaranthus retoflexus (AMARE); assay: as above; conditions: Amaranthus retroflexus, 312 h
# Outline: as §1
# [3] = system: Echinochloa crus-galli (ECHCG); assay: as above; conditions: 312 h
# Outline: as §1
# [4] = system: Ipomea hederaceae (IPOHE); assay: as above; conditions: Ipomoea hederacea, 312 h
# Outline: as §1
# Setaria faberi (SETFA) [5] = assay: as above; conditions: 312 h
# Outline: as §1
# Solanum nigrum (SOLNI) [6] = assay: as above; conditions: 312 h
# Outline: as §1
# [7] = system: Alopecurus myosuroides (ALOMY); assay: Post-emergence biological efficacy, glasshouse pot test; conditions: 312 h
# Outline: (§2)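 Pot-grown weeds were sprayed 8 days after sowing with test compound in acetone/water (50:50) with 0.5% Tween 20 at 1000 or 250 g/ha. Glasshouse at 24/16° C day/night, 14 h light, 65% humidity. Damage scored 0-100 (100 = total damage) after 13 days.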
# [8] = system: Amaranthus retoflexus (AMARE); assay: as above; conditions: Amaranthus retroflexus, 312 h
# Outline: as §2
# [9] = system: Echinochloa crus-galli (ECHCG); assay: as above; conditions: 312 h
# Outline: as §2
# [10] = system: Ipomea hederaceae (IPOHE); assay: as above; conditions: Ipomoea hederacea, 312 h
# Outline: as §2
# Setaria faberi (SETFA) [11] = assay: as above; conditions: 312 h
# Outline: as §2
# Solanum nigrum (SOLNI) [12] = assay: as above; conditions: 312 h
# Outline: as §2
# [13] = pre-emergence, 1,000 g/ha, evaluated after 13 days (100=total damage; 0=no damage), read-out: Percentage damage ALOMY
# [14] = pre-emergence, 1,000 g/ha, evaluated after 13 days (100=total damage; 0=no damage), read-out: Percentage damage AMARE
# [15] = pre-emergence, 1,000 g/ha, evaluated after 13 days (100=total damage; 0=no damage), read-out: Percentage damage ECHCG
# [16] = pre-emergence, 1,000 g/ha, evaluated after 13 days (100=total damage; 0=no damage), read-out: Percentage damage IPOHE
# [17] = pre-emergence, 1,000 g/ha, evaluated after 13 days (100=total damage; 0=no damage), read-out: Percentage damage SETFA
# [18] = pre-emergence, 1,000 g/ha, evaluated after 13 days (100=total damage; 0=no damage), read-out: Percentage damage SOLNI
# [19] = post-emergence, 1,000 g/ha, evaluated after 13 days (100=total damage; 0=no damage), read-out: Percentage damage caused to weed species, ALOMY
# [20] = post-emergence, 1,000 g/ha, evaluated after 13 days (100=total damage; 0=no damage), read-out: Percentage damage caused to weed species, AMARE
# [21] = post-emergence, 1,000 g/ha, evaluated after 13 days (100=total damage; 0=no damage), read-out: Percentage damage caused to weed species, ECHCG
# [22] = post-emergence, 1,000 g/ha, evaluated after 13 days (100=total damage; 0=no damage), read-out: Percentage damage caused to weed species, IPOHE
# [23] = post-emergence, 1,000 g/ha, evaluated after 13 days (100=total damage; 0=no damage), read-out: Percentage damage caused to weed species, SETFA
# [24] = post-emergence, 1,000 g/ha, evaluated after 13 days (100=total damage; 0=no damage), read-out: Percentage damage caused to weed species, SOLNI
# [25] = pre-emergence, rate 1,000 g/ha, evaluated after 13 days (100=total damage to plant; 0=no damage), read-out: Percentage damage caused to weed species, ALOMY
# [26] = pre-emergence, rate 1,000 g/ha, evaluated after 13 days (100=total damage to plant; 0=no damage), read-out: Percentage damage caused to weed species, AMARE
# [27] = pre-emergence, rate 1,000 g/ha, evaluated after 13 days (100=total damage to plant; 0=no damage), read-out: Percentage damage caused to weed species, ECHCG
# [28] = pre-emergence, rate 1,000 g/ha, evaluated after 13 days (100=total damage to plant; 0=no damage), read-out: Percentage damage caused to weed species, IPOHE
# [29] = pre-emergence, rate 1,000 g/ha, evaluated after 13 days (100=total damage to plant; 0=no damage), read-out: Percentage damage caused to weed species, SETFA
# [30] = pre-emergence, rate 1,000 g/ha, evaluated after 13 days (100=total damage to plant; 0=no damage), read-out: Percentage damage caused to weed species, SOLNI
# [31] = Rate 1,000 g/ha, post-emergence spray, evaluated after 13 days (100=total damage to plant; 0=no damage to plant), read-out: Percentage damage caused to weed species, post-emergence, ALOMY
# [32] = Rate 1,000 g/ha, post-emergence spray, evaluated after 13 days (100=total damage to plant; 0=no damage to plant), read-out: Percentage damage caused to weed species, post-emergence, AMARE
# [33] = Rate 1,000 g/ha, post-emergence spray, evaluated after 13 days (100=total damage to plant; 0=no damage to plant), read-out: Percentage damage caused to weed species, post-emergence, ECHCG
# [34] = Rate 1,000 g/ha, post-emergence spray, evaluated after 13 days (100=total damage to plant; 0=no damage to plant), read-out: Percentage damage caused to weed species, post-emergence, IPOHE
# [35] = Rate 1,000 g/ha, post-emergence spray, evaluated after 13 days (100=total damage to plant; 0=no damage to plant), read-out: Percentage damage caused to weed species, post-emergence, SETFA
# [36] = Rate 1,000 g/ha, post-emergence spray, evaluated after 13 days (100=total damage to plant; 0=no damage to plant), read-out: Percentage damage caused to weed species, post-emergence, SOLNI
Compound,"pest or weed control at 1000 g/ha [1, 13]","pest or weed control at 1000 g/ha [2, 14]","pest or weed control at 1000 g/ha [3, 15]","pest or weed control at 1000 g/ha [4, 16]",pest or weed control at 1000 g/ha (Setaria faberi (SETFA) [5]; [17]),pest or weed control at 1000 g/ha (Solanum nigrum (SOLNI) [6]; [18]),"pest or weed control at 1000 g/ha [7, 19]","pest or weed control at 1000 g/ha [8, 20]","pest or weed control at 1000 g/ha [9, 21]","pest or weed control at 1000 g/ha [10, 22]",pest or weed control at 1000 g/ha (Setaria faberi (SETFA) [11]; [23]),pest or weed control at 1000 g/ha (Solanum nigrum (SOLNI) [12]; [24]),also measured
"COC(=O)c1nc(C2CC2)nc(NC2(/C=C/c3ccccc3F)CC2)c1Cl [Compound 4-27, 5-Chloro-2-cyclopropyl-4-{1-[2-(2-fluorophenyl)-ethenyl]-cyclo-propylamino}-6-methoxycarbonyl-pyrimidine]",10%,40%,0%,80%,0%,10%,10%,100%,60%,100%,70%,80%,–
"CCOC(=O)c1nc(C2CC2)nc(NCc2ccco2)c1Cl [Compound 7-125, 5-Chloro-2-cyclopropyl-6-ethoxycarbonyl-4-(2-furanylmethyl-amino)pyrimidine]",–,–,–,–,–,–,–,–,–,–,–,–,"pest or weed control at 1000 g/ha [1, 25]: 60%; pest or weed control at 1000 g/ha [2, 26]: 100%; pest or weed control at 1000 g/ha [3, 27]: 90%; pest or weed control at 1000 g/ha [4, 28]: 100%; pest or weed control at 1000 g/ha (Setaria faberi (SETFA) [5]; [29]): 80%; pest or weed control at 1000 g/ha (Solanum nigrum (SOLNI) [6]; [30]): 100%; pest or weed control at 1000 g/ha [7, 31]: 90%; pest or weed control at 1000 g/ha [8, 32]: 100%; pest or weed control at 1000 g/ha [9, 33]: 80%; pest or weed control at 1000 g/ha [10, 34]: 100%; pest or weed control at 1000 g/ha (Setaria faberi (SETFA) [11]; [35]): 90%; pest or weed control at 1000 g/ha (Solanum nigrum (SOLNI) [12]; [36]): 90%"
"Cc1ccc(CNc2nc(C3CC3)nc(C(=O)O)c2Cl)cc1 [Compound 1-73, 5-Chloro-2-cyclo-propyl-4-(4-methyl-phenylmethyl-amino)pyrimidine-6-carboxylic acid]",10%,70%,10%,60%,30%,80%,10%,100%,30%,80%,50%,80%,–
"COC(=O)c1nc(C2CC2)nc(N[C@@H](C)[C@H](O)c2ccccc2)c1Cl [4-270 (1S,2R), 5-Chloro-2-cyclopropyl-4-[(1S, 2R)-2-hydroxy-1-methyl-2-phenyl-ethylamino]-6-methoxycarbonyl-pyrimidine]",20%,70%,20%,100%,30%,80%,40%,100%,30%,100%,80%,100%,–
"COC(=O)c1nc(C2CC2)nc(NC(c2ccccc2)c2ccccc2)c1Cl [Compound 4-277, 5-Chloro-2-cyclopropyl-4-(diphenylmethyl-amino)-6-methoxy-carbonylpyrimidine]",0%,0%,0%,40%,0%,0%,30%,90%,50%,70%,50%,50%,–
"COC(=O)c1nc(-c2ccc(C)c(F)c2)nc(NCc2ccco2)c1Cl [Compound 240-48, 5-Chloro-2-(3-fluoro-4-methylphenyl)-4-(furan-2-yl-methyl-amino)-6-methoxy-carbonylpyrimidine]",–,–,–,–,–,–,–,–,–,–,–,–,"pest or weed control at 1000 g/ha [1, 25]: 0%; pest or weed control at 1000 g/ha [2, 26]: 100%; pest or weed control at 1000 g/ha [3, 27]: 0%; pest or weed control at 1000 g/ha [4, 28]: 0%; pest or weed control at 1000 g/ha (Setaria faberi (SETFA) [5]; [29]): 0%; pest or weed control at 1000 g/ha (Solanum nigrum (SOLNI) [6]; [30]): 50%; pest or weed control at 1000 g/ha [7, 31]: 0%; pest or weed control at 1000 g/ha [8, 32]: 100%; pest or weed control at 1000 g/ha [9, 33]: 20%; pest or weed control at 1000 g/ha [10, 34]: 70%; pest or weed control at 1000 g/ha (Setaria faberi (SETFA) [11]; [35]): 10%; pest or weed control at 1000 g/ha (Solanum nigrum (SOLNI) [12]; [36]): 30%"
"COC(=O)c1nc(C2CC2)nc(NCC(O)c2ccccc2)c1Cl (stereo not drawn) [Compound 4-257, 5-Chloro-2-cyclopropyl-4-(2-hydroxy-2-phenyl-ethylamino)-6-methoxycarbonyl-pyrimidine]",40%,100%,60%,100%,80%,90%,60%,100%,70%,100%,80%,90%,–
"COC(=O)c1nc(C2CC2)nc(NCc2ccc(Br)o2)c1Cl [Compound 4-129, 4-(5-bromofuran-2-ylmethylamino)-5-chloro-2-cyclopropyl-6-methoxycarbonyl-pyrimidine]",30%,100%,70%,100%,40%,100%,40%,100%,70%,100%,90%,90%,–
"COC(=O)c1nc(C2CC2)nc(NC2(/C=C/c3cccc(Cl)c3Cl)CC2)c1Cl [Compound 4-29, 5-Chloro-2-cyclopropyl-4-{1-[2-(2,3-dichloro-phenyl)ethenyl]-cyclopropylamino}-6-methoxycarbonyl-pyrimidine]",10%,30%,0%,70%,10%,30%,10%,90%,30%,100%,60%,100%,–
